In patent US20190142829A1, “AMELIORATION OF ANGELMAN'S SYNDROME DEFICIENCIES” (Neuralstem, Inc., priority 2017, published 2019):

Assays:
[1] = tested on: mice with Angelman syndrome (AS); test: LTP assay on post-mortem hippocampal slices after in vivo dosing, AS mice; conditions: 30 mg/kg phosphate salt i.p. daily for 18 days, vs vehicle, p<0.05, FIG. 2
Protocol: (§1) Four groups (n=4/5 per group) of young adult mice (age ˜3 months) were administered 30mg/kg of the phosphate salt of NSI-189 i.p. daily for 13-15 days for behavior assays and for 18 days prior to termination followed by in vitro LTP assays or administered only vehicle. The groups included • (1) mice with Angelman syndrome (AS) treated with NSI-189, • (2) mice with Angelman syndrome (AS) treated with vehicle, • (3) wild-type littermates treated with NSI-189, and • (4) wild-type littermates treated with vehicle.

AS mice = test: Wire hang test (Hanging Wire test), AS mice; format: in vivo; conditions: phosphate i.p. over 21 days: D1-D7 3, D8-D14 10, D15-D21 30 mg/kg, maximum 120 sec, ultimately matched wild type, FIG. 3
Protocol: The wire hang test evaluates muscle strength as well as motor coordination. The set up includes a wire (0.2 cm in diameter×54.5 cm in length) stretched horizontally between two poles and elevated from a padded surface. The test starts when the mouse hangs onto the wire from its two forelimbs and lasts for 120 sec maximum. The time before falling, or the maximum score of 120 sec if no fall occurred, is recorded for each animal.
Four groups 5 mice for each group were used. Controls were administered vehicle and test groups were administered NSI-189 phosphate i.p. over 21 days as follows: D1-D7—3 mg/kg NSI-189 phosphate; D8-D14—10 mg/kg NSI-189 phosphate; D15-D21—30 mg/kg NSI-189 phosphate.
As shown, the AS mice administered only vehicle were not able to hang onto the wire for more than about 20 seconds, whereas AS mice treated with NSI-189 ultimately matched the times of wild type mice at about 100 seconds.

[2] = tested on: hippocampal slices from normal, healthy, young adult mice (field CA1); test: LTP elicited by theta burst stimulation in hippocampal slices treated in vitro, normal mice; format: cell-based; conditions: 100 nM to 10 μM for up to 3.5 h before theta burst stimulation, applicant's work, Liu et al, SfN Abstract 2016
Protocol: In work by applicant, hippocampal slices from normal, healthy, young adult mice were treated with various concentrations of NSI-189 (100 nM to 10 μM) for various times up to 3.5 h, before applying theta burst stimulation (TBS) to elicit long-term potentiation (LTP) in field CA1.

wild type mice = test: LTP assay on post-mortem hippocampal slices after in vivo dosing, wild type mice; conditions: 30 mg/kg phosphate salt i.p. daily for 18 days, FIG. 2
Protocol: as §1

[3] = tested on: hippocampal brain slices prepared from young adult Angelman mice; test: LTP in hippocampal brain slices treated in vitro, Angelman mice; format: cell-based; conditions: slices from Angelman mice (maternal Ube3A deletion); transient treatment for 3.5 hours; Liu et al, SfN Abstract 2016
Description: Further, in a mouse model of Angelman syndrome, carrying the same maternal Ube3A deletion affected in human AS patients, the normal LTP is absent.

[4] = tested on: mice with Angelman syndrome (AS); test: Fear-conditioning test, mouse model of Angelman syndrome; format: in vivo; conditions: 30 mg/kg phosphate salt i.p. daily, 2 weeks, vs vehicle, p<0.01, FIG. 1
Protocol: as §1
The behavior assay conducted was fear-conditioning test as diagnostic of hippocampal memory function.

## CC(C)CCNc1ncccc1C(=O)N1CCN(Cc2ccccc2)CC1.O=P(O)(O)O [NSI-189]
[1]
  LTP in post-mortem hippocampal slices: restoration of LTP
AS mice
  time before falling (hanging on the wire): about 100 seconds
[2]
  effect on long-term potentiation (LTP) in field CA1: statistically significant enhancement of the normal LTP level
Wild type mice
  LTP in post-mortem hippocampal slices: improved
[3]
  effect on LTP activity: restore the LTP activity to normal level
[4]
  freezing time following ring-tone (memory deficit): memory deficit was diminished
